In patent publication US20060142323A1, “Dual binding site acetylcholinesterase inhibitors for the treatment of alzheimer's disease” (priority 2002, published 2006):
Like-named read-outs stand apart in the source and are kept apart here.

Experiments:
[1] = test system: human neuroblastoma cell line SH—SY5Y; assay: Toxicity measurement (LDH) in SH-SY5Y cells; assay type: cell-based; conditions: 24 hours exposure
Description: The cytotoxicity effect of the molecules was tested in the human neuroblastoma cell line SH—SY5Y. These cells were cultured in 96-well plates in minimum essential medium, Han's F12 medium, supplemented with 10% fetal bovine serum, 1% glutamine and 1% penicillin/streptomycin, and grown in. a 5% CO2 humidified incubator at 37° C.
The cells were plated at 10^4 cells for each well, at least, 48 hours before the toxicity measure. Cells were exposed for 24 hours to the compounds at different concentrations (from 10^−5 to 10^−9), quantitative assessment of cell death was made by measurement of the intracellular enzyme lactate dehydrogenase (LDH) (citotoxicity detection kit, Roche). The cuantity of LDH was evaluated in a microplate reader Anthos 2010, at 492 and 620 nm. Controls were taken as 100% viability.

[2] = target: T1, AChE from bovine erythrocytes (Bos taurus, UniProt P23795); assay: Acetylcholinesterase (AChE) inhibition (from bovine erythrocytes), Ellman method at 30° C., Digiscan 340T; assay type: biochemical
T1 construct: 0.02 units AChE (Sigma Chemical Co. from bovine erythrocytes); purchased Sigma Chemical Co; host or cells: bovine erythrocytes
T1 sequence (P23795 31-614 isoform P23795-2 limits assumed): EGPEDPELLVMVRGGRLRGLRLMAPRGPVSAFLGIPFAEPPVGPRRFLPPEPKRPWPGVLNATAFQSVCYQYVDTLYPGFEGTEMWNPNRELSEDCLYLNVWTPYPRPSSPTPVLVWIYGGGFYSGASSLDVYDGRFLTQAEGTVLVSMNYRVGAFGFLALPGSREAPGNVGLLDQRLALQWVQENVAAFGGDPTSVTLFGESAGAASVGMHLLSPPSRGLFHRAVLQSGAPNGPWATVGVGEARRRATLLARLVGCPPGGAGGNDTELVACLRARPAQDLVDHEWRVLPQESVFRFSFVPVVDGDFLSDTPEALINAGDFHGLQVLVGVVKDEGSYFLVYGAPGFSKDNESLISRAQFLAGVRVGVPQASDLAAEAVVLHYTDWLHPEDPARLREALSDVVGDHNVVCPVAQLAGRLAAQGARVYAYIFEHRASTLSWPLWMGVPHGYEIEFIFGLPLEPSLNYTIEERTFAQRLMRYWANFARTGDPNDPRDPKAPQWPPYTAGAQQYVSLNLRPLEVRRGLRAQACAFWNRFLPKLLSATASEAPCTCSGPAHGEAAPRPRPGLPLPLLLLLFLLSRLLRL
Description: Acetylcholinesterase (AChE) Inhibition (from Bovine Erythrocytes)
AChE inhibitory activity was evaluated at 30° C. by the colorimetric method reported by Ellman [Ellman, G. L.; Courtney, K. D.; Andres, B.; Featherstone, R. M. Biochem. Pharmacol. 1961, 7, 88-95]. The assay solution consisted of 0.1 M phosphate buffer pH 8, 0.3 mM 5,5′-dithiobis (2-nitrobenzoic acid) (DTNB, Ellman's reagent), 0.02 units AChE (Sigma Chemical Co. from bovine erythrocytes), and 0.5 mM acetylthiocholine iodide as the substrate of the enzymatic reaction. The compounds tested were added to the assay solution and preincubated with the enzyme for 5 min at 30° C. After that period, the substrate was added. The absorbance changes at 405 nm were recorded for 5 min with a microplate reader Digiscan 340T, the reaction rates were compared, and the percent inhibition due to the presence of test compounds was calculated. The reaction rate was calculated with, at least, triplicate measurements, and the percent inhibition due to the presence of test compound was calculated relative to the compound-free control.

[3] = target: AChE peripheral site (Homo sapiens, UniProt P22303); assay: Propidium competition (fluorescence); assay type: binding; conditions: 20 μM propidium iodide, AChE incubated at least 6 hours with compound
Description: Fluorescence was measured in a Fluostar optima plate reader (BMG). Measurements were carried out in 100 μl solution volume, in 96-well plates. The buffer used was 1 mM Tris/HCl, pH 8.0. […] AChE was incubated, at least 6 hours, with the molecules at different concentrations. 20 μM propidium iodide was added 10 min before fluorescence measurement.

[4] = target: T2, BuChE from human serum (Homo sapiens, UniProt P06276); assay: Butyrylcholinesterase (BuChE) inhibition (from human serum); assay type: biochemical
T2 construct: The assay solution consisted of 0.01 units BuChE from human serum; from tissue; host or cells: human serum
Description: Butyrylcholinetersae (BuChE) Inhibition (from Human Serum)
BuChE inhibitory activity was evaluated at 30° C. by the colorimetric method reported by Ellman (Ellman, G. L.; Courtney, K. D.; Andres, B.; Featherstone, R. M. Biochem. Pharmacol. 1961, 7, 88-95]. The assay solution consisted of 0.01 units BuChE from human serum, 0.1 M sodium phosphate buffer pH 8, 0.3 mM 5,5′-dithiobis (2-nitrobenzoic acid) (DTNB, Ellman's reagent), and 0.5 mM butylthiocholine iodide as the substrate of the enzymatic reaction. Enzyme activity was determined by measuring the absorbance at 405 nm during 5 minutes with a microplate reader Digiscan 340T. The tested compounds were preincubated with the enzyme for 10 minutes at 30° C. The reaction rate was calculated with, at least, triplicate measurements.

[5] = target: T3, β-amyloid-AChE complex (Homo sapiens, UniProt P22303); assay: Inhibition of β-amyloid aggregation (AChE-Aβ complex, Congo Red binding); assay type: biochemical; conditions: propidium iodide 50 μM, Aβ1-40 0.1 mM, Aβ-AChE 200:1, 48 hours
T3 construct: purchased Sigma-Aldrich
Description: Inhibition of β-Amyloid Aggregation:
Stock solutions of Aβ1-40 at 3.5 mM were prepared in DMSO. The amount of peptide used in the assays was 0.1 mM. Human recombinant AChE (Sigma-Aldrich) was used at a molar ratio Aβ-AChE 200:1. For the aggregation studies the peptide was mixed with the appropriate amount of AChE in PBS pH 7.4 and stirred for 48 hours in -a microtiter plate at room temperature. The fibrils obtained were characterized by Congo Red (CR) binding.
For the inhibition of β-amyloid aggregation, the compounds tested were used at the IC50 defined in the previous paragraph of the biological evaluation. Propidium iodide 50 μM for comparison.

[6] = target: T4, AChE from human erythrocytes (Homo sapiens, UniProt P22303); assay: AChE inhibition (from human erythrocytes), Ellman method; assay type: biochemical; conditions: 10 min preincubation at 30° C., 400 μM acetylthiocholine iodide, pH 8
T4 construct: 0.02 unit/ml AChE (Sigma Chemical Co. from human erythrocytes); purchased Sigma Chemical Co; host or cells: human erythrocytes
Description: AChE Inhibition (from Human Erythrocytes)
The method of Ellman et al. (Ellman, G. L.; Courtney, K. D.; Andres, B.; Featherstone, R. M. Biochem. Pharmacol. 1961, 7, 88-95) was followed. The assay solution consisted of 0.1 M phosphate buffer pH 8, 200 μM 5,5′-dithiobis(2-nitrobenzoic acid) (DTNB, Ellan's reagent), 0.02 unit/ml AChE (Sigma Chemical Co. from human erythrocytes), and 400 μM acetylthiocholine iodide as the substrate of the enzymatic reaction. The compounds tested were added to the assay solution and pre incubated with the enzyme for 10 min at 30° C. After that period, the substrate was added. The absorbance changes at 412 nm were recorded for 5 min with a Perkin-Elmer 550 SE UV/VIS spectrometer, the reaction rates were compared, and the percent inhibition due to the presence of test compounds was calculated.

[7] = test system: SH—SY5Y cells exposed to β-amyloid fragment 25-35; assay: Effects on β-amyloid toxicity (fragment 25-35, LDH viability); assay type: cell-based, human; conditions: 1 hour pretreatment, Aβ 25-35 at 200 μM, 24 hours
Description: Effects on β-Amiloid Toxicity
We have tested if some of these molecules interfere with amyloid peptide toxicity. Cells SH—SY5Y were cultured in 96-well plates as toxicity experiments. Cells were pretreated for 1 hour with the compounds at different concentrations (from 10^−5 to 10^−9), immediately neuronal death is induced adding synthetic peptide β-amyloid, fragment 25-35 (A25-35) at 200 μM. 24 hours later cell viability was assessed with the LDH assay; results are reported relative to untreated wells.

[8] = bovine erythrocytes AChE, 30° C., 5 min preincubation, read-out: IC50 AchE
[9] = human serum BuChE, 30° C., 10 min preincubation, read-out: IC50 BuChE

AChE peripheral site, sequence (P22303 32-614): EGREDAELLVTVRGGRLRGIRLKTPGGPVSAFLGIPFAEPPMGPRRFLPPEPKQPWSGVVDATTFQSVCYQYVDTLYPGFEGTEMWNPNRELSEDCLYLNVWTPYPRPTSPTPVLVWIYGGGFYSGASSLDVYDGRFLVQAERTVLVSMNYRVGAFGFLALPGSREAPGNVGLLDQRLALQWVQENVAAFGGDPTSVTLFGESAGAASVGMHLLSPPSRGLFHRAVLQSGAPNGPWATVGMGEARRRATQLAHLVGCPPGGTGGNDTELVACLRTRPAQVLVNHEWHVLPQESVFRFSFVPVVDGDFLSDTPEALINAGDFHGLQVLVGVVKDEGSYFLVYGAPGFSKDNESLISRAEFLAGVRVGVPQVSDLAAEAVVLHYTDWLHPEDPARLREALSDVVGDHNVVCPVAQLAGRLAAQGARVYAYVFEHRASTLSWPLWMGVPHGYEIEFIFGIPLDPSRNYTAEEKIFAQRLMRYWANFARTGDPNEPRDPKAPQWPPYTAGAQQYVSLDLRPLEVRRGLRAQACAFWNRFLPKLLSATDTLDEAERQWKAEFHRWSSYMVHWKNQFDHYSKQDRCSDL
T2 sequence (P06276 29-602): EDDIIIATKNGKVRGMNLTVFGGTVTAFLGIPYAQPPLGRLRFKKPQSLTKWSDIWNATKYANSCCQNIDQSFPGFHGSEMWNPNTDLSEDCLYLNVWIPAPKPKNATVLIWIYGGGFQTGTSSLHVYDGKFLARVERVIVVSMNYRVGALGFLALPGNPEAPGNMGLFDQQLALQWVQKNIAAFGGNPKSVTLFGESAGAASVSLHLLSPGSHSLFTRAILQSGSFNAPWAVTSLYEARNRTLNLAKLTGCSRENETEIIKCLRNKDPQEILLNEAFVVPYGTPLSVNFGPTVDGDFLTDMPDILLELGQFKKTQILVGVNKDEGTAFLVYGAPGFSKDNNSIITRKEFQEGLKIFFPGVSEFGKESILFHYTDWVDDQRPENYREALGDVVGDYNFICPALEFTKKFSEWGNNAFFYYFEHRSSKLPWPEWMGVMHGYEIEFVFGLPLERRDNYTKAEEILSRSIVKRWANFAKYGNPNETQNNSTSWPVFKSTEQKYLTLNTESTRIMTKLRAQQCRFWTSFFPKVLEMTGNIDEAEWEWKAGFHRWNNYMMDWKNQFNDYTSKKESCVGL
T4 sequence (P22303 32-617 isoform P22303-2 limits assumed): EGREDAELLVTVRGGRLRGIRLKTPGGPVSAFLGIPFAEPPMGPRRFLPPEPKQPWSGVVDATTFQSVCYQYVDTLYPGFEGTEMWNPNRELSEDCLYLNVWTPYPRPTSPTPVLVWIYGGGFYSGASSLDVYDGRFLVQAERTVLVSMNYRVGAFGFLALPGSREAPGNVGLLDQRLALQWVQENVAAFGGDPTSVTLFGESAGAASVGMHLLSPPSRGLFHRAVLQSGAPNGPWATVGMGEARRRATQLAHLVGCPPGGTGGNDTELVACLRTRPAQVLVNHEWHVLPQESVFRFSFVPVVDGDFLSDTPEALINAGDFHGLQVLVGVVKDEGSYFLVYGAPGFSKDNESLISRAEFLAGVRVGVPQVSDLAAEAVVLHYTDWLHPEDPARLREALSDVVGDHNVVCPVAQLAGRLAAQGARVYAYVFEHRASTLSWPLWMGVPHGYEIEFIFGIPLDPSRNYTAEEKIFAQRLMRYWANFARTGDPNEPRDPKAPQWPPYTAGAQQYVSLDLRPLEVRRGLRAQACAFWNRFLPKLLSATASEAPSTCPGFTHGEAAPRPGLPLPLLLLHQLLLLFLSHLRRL
T3 sequence (P22303 32-614, one chain of several): as the sequence (P22303 32-614) above

| Structure (SMILES) | Toxicity [1] | IC50 [2, 8] | Propidium competition [3] | IC50 [4, 9] | reduction of the β-amyloid-AChE complex aggregation [5] | IC50 [6] | IC50 [2] | IC50 [4] | inhibition of Aβ(25-35) toxicity [7] |
| --- | --- | --- | --- | --- | --- | --- | --- | --- | --- |
| CN(CCCNc1c2c(nc3cc(Cl)ccc13)CCCC2)CCCNc1c2c(nc3cc(Cl)ccc13)CCCC2 [Compound 19] | 10 µM | 0.1 nM | 10 µM | 1.5 nM |  |  |  |  |  |
| O=C1c2ccccc2C(=O)N1CCCCCCCCCNc1c2ccccc2nc2ccccc12 [Compound 9, 2-[9-(Acridin-9-ylamino)-nonyl]-isoindole-1,3-dione] | >100 µM | 2 nM | 1 µM | 90 nM |  |  |  |  |  |
| CC[N+](C)(CC)CCC[n+]1c(-c2ccccc2)c2cc(N)ccc2c2ccc(N)cc21 [propidium, Propidium iodide, reference compound] |  |  |  |  | 18.1% |  |  |  |  |
| O=C1c2ccccc2C(=O)N1CCCCCCNc1c2ccccc2nc2ccccc12 [Compound 6, 2-[6-(Acridin-9-ylamino)-hexyl]-isoindole-1,3-dione] | >100 µM | 900 nM | 10 µM | 8 nM |  |  |  |  |  |
| COc1cc2c(cc1OC)C(=O)C(CNCCCCCCNc1c3c(nc4ccccc14)CCCC3)C2 (stereo not shown) [Compound 2, 5,6-Dimethoxy-2-{[6-(1,2,3,4-tetrahydro-acridin-9-ylamino)-hexylamino]-methyl}-indan-1-one] |  |  |  |  |  | 100 nM |  |  |  |
| O=C(CN1C(=O)c2ccccc2C1=O)NCCCCCCCNc1c2c(nc3cc(Cl)ccc13)CCCC2 [Compound 10, N-[7-(6-Chloro-1,2,3,4-tetrahydro-acridin-9-ylamino)-heptyl]-2-(1,3-dioxo-1,3-dihydro-isoindol-2-yl)-acetamide] | >100 µM | 20 nM | 10 µM | 650 nM |  |  |  |  |  |
| CCn1c(=NCCCCCCCCNc2c3c(nc4ccccc24)CCCC3)sn(C(C)C)c1=O [Compound 17, 4-Ethyl-2-isopropyl-5-[8-(1,2,3,4-tetrahydro-acridin-9-ylamino)-octylimino]-[1,2,4]thiadiazolidin-3-one] | >100 µM | 200 nM | 0.1 µM | 10 nM |  |  |  |  |  |
| CCn1c(=NCCCCCCNc2c3c(nc4ccccc24)CCCC3)sn(C(C)C)c1=O [Compound 18, 4-Ethyl-2-isopropyl-5-[6-(1,2,3,4-tetrahydro-acridin-9-ylamino)-hexyl-imino]-[1,2,4]thiadiazolidin-3-one] | >10 µM |  | >100 µM |  |  |  | 2250 nM | 1000 nM |  |
| O=C1c2ccccc2C(=O)N1CCCCCCCCNc1c2c(nc3ccccc13)CCCC2 [Compound 5, 2-[8-(1,2,3,4-Tetrahydro-acridin-9-ylamino)-octyl]-isoindole-1,3-dione] | 5 µM | 90 nM | >100 µM | 30 nM |  |  |  |  |  |
| Clc1ccc2c(NCCCCCCCCNc3c4ccccc4nc4ccccc34)c3c(nc2c1)CCCC3 [Compound 24, N-Acridin-9-yl-N′-(6-chloro-1,2,3,4-tetrahydro-acridin-9-yl)-octane-1,8-diamine] | 5 µM | 1 nM | 10 µM | 35 nM |  |  |  |  |  |
| Clc1ccc2c(NCCCCCCCNc3c4ccccc4nc4ccccc34)c3c(nc2c1)CCCC3 [Compound 23, N-Acridin-9-yl-N′-(6-chloro-1,2,3,4-tetrahydro-acridin-9-yl)-heptane-1,7-diamine] | 0.5 µM | 0.4 nM | 1 µM | 20 nM |  |  |  |  | 1 µM |
| O=C1c2ccccc2C(=O)N1CCCCCCCCNc1c2ccccc2nc2ccccc12 [Compound 8, 2-[8-(Acridin-9-ylamino)-octyl]-isoindole-1,3-dione] | 100 µM | 1000 nM | >100 µM | 1000 nM |  |  |  |  |  |
| O=C1c2ccccc2C(=O)N1CCCCCCCNc1c2c(nc3ccccc13)CCCC2 [Compound 4, 2-[7-(1,2,3,4-Tetrahydro-acridin-9-ylamino)-heptyl]-isoindole-1,3-dione] | >100 µM | 3000 nM | 10 µM | 10 nM |  |  |  |  |  |
| O=C(CN1C(=O)c2ccccc2C1=O)NCCCCCCNc1c2c(nc3cc(Cl)ccc13)CCCC2 [Compound 12, N-[6-(6-Chloro-1,2,3,4-tetrahydro-acridin-9-ylamino)-hexyl]-2-(1,3-dioxo-1,3-dihydro-isoindol-2-yl)-acetamide] | >100 µM | 10 nM | 100 µM | 200 nM |  |  |  |  |  |
| CN(CCCNC(=O)CN1C(=O)c2ccccc2C1=O)CCCNc1c2c(nc3cc(Cl)ccc13)CCCC2 [Compound 11, N-(3-{[3-(6-Chloro-1,2,3,4-tetrahydro-acridin-9-ylamino)-propyl]-methyl-amino}-propyl)-2-(1,3-dioxo-1,3-dihydro-isoindol-2-yl)-acetamide] | >100 µM | 3 nM | 10 µM | 75 nM |  |  |  |  |  |
